Data on 1 compound can be found in ChEMBL document CHEMBL5316350, “Novel Pyrido[2',1':2,3]imidazo[4,5-c]quinoline Derivative Selectively Poisons Leishmania donovani Bisubunit Topoisomerase 1 to Inhibit the Antimony-Resistant Leishmania Infection in Vivo” (J Med Chem, 2023).

The test system of assay [1] is Leishmania donovani. Nature of the assay: Induction of cell cycle arrest in Leishmania donovani Ag83 promastigotes assessed as decrease in accumulation of cells in S phase at 5 uM measured after 24 hrs by PI staining based flow cytometry (reference value: 18.1%). Format: functional. Set-up: scale not given: the % may be the effect or the level left. For orientation: A flow cytometer gives signals particle by particle.

The next assay has as its target T1, DNA topoisomerase I (Leishmania donovani (strain BPK282A1), UniProt E9BRC0).
T1 sequence (E9BRC0 whole entry): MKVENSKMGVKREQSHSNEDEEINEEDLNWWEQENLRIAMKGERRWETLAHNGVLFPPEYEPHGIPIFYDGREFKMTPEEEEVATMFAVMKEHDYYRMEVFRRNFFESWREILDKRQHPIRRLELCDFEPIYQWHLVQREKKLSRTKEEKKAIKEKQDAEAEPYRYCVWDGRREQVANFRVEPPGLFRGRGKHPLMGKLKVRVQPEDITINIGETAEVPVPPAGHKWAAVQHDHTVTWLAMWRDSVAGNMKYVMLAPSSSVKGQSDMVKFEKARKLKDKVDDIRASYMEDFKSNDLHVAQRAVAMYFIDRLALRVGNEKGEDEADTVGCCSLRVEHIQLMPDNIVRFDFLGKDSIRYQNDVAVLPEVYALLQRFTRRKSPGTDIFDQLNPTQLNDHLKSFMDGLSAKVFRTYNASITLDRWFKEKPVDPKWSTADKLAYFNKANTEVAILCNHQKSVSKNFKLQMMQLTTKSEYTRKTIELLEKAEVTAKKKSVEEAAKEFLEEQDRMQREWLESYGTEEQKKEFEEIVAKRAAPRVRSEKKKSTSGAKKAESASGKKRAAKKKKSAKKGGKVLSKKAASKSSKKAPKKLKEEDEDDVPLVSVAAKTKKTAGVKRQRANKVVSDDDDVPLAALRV
Nature of the assay: Inhibition of recombinant Top1 in Leishmania donovani Ag83 whole cell extract assessed as relaxation of supercoiled pBluescript SK(+) DNA measured by agarose gel electrophoresis analysis.

For assay [2], the target named is T2, DNA topoisomerase I (Leishmania donovani (strain BPK282A1)) (UniProt E9BRC0).
T2 sequence (whole entry): T1 sequence (E9BRC0 whole entry)
Kind of assay: Inhibition of Leishmania donovani recombinant Top1 assessed as relaxation of supercoiled pBluescript SK(+) DNA at 5 uM incubated for 30 mins by agarose gel electrophoresis analysis relative to control.

Assay [3] addresses T2, DNA topoisomerase I (Leishmania donovani (strain BPK282A1)). Nature of the assay: Potency index, ratio of Camptothecin IC50 to compound IC50 for inhibition of Leishmania donovani Top1 assessed as relaxation of supercoiled pBluescript SK(+) DNA measured by agarose gel electrophoresis analysis.
Assay [4] has the same target. Kind of assay: Inhibition of Leishmania donovani topoisomerase I assessed as DNA intercalation using pBluscript (SK+) DNA as substrate at 20 to 200 uM incubated for 15 mins ethidium bromide staining based UV analysis. Particulars: dose 20-200 µM.
Assay [5] has the same target. Nature of the assay: Binding affinity to Leishmania donovani recombinant topoisomerase I assessed as stabilization of cleavage complex at 2.5 to 25 uM measured after 30 mins. Particulars: dose 2.5-25 µM.
Assay [6] deals with Leishmania donovani. Nature of the assay: Induction of cell cycle arrest in Leishmania donovani Ag83 promastigotes assessed as decrease in accumulation of cells in G2/M phase at 5 uM measured after 12 hrs by PI staining based flow cytometry (reference value: 15.1 %). The format is functional. The arrangement: scale not given: the % may be the effect or the level left.
In assay [7] the test system is Leishmania donovani. Kind of assay: Induction of cell cycle arrest in Leishmania donovani Ag83 promastigotes assessed as decrease in accumulation of cells in G2/M phase at 5 uM measured after 24 hrs by PI staining based flow cytometry (reference value: 15.1 %). Set-up: scale not given: the % may be the effect or the level left. The format is functional.
In assay [8] the test system is Leishmania donovani. Nature of the assay: Induction of apoptosis in […] Leishmania donovani Ag83 promastigotes assessed as DNA break accumulation measured at 5 uM after 15 mins by TUNEL staining based assay. The format is functional, organism-based.
The test system of assay [9] is Leishmania donovani. Nature of the assay: Induction of apoptosis in Leishmania donovani Ag83 promastigotes assessed as necrotic cells measured at 5 uM after 6 hrs by Annexin V-FITC/PI staining based flow cytometric analysis (reference value: 0.5%). Format: functional.
For assay [10], the system named is Leishmania donovani. Kind of assay: Induction of apoptosis in Leishmania donovani Ag83 promastigotes assessed as viable cells measured at 5 uM after 24 hrs by Annexin V-FITC/PI staining based flow cytometric analysis (reference value: 99.4%). The format is functional.
The subject of assay [11] is Leishmania donovani. Nature of the assay: Induction of apoptosis in Leishmania donovani Ag83 promastigotes assessed as increase in apoptotic genomic DNA fragmentation measured at 5 uM after 6 hrs by Annexin V-FITC/PI staining based flow cytometric analysis. The format is functional, organism-based.
The test system of assay [12] is MCF7. Kind of assay: Induction of apoptosis in human MCF7 cells measured at 5 uM upto 24 hrs by Annexin V-FITC/PI staining based flow cytometric analysis. The format is functional, cell-based.
In assay [13] the test system is MCF7. Nature of the assay: Potency index ratio of test compound IC50 to camptothecin IC50 for cytotoxicity against human MCF7 cells. Format: functional.
Assay [14] has as its system Leishmania donovani. Nature of the assay: Induction of apoptosis in Leishmania donovani BHU575 assessed as DNA break accumulation measured at 5 uM after 6 to 24 hrs by TUNEL staining based assay. As to conditions: time 6-24 hrs. The format is functional, organism-based.
Assay [15] deals with Leishmania donovani. Kind of assay: Induction of apoptosis in Leishmania donovani BHU575 promastigotes assessed as DNA break accumulation measured at 5 uM after 6 to 24 hrs by TUNEL staining based assay. The format is functional, organism-based. Particulars: time 6-24 hrs.
The subject of assay [16] is Leishmania donovani. Nature of the assay: Induction of cell cycle arrest in antimony resistant Leishmania donovani BHU575 promastigotes assessed as decrease in accumulation of cells in G2/M phase at 5 uM measured after 12 hrs by PI staining based flow cytometry (reference value: 8.8%). The format is functional. Set-up: scale not given: the % may be the effect or the level left.

Assay [17] concerns Leishmania donovani. Kind of assay: Antileishmanial activity against Leishmania donovani Ag83 promastigotes assessed as cell viability by MTT assay. Format: functional, organism-based.
The subject of assay [18] is Leishmania donovani. Nature of the assay: Antileishmanial activity against Leishmania donovani Ag83 promastigotes infected in BALB/c mouse assessed as reduction of macrophage at 1 to 10 uM infection by propidium iodide staining analysis. Format: functional, organism-based. Particulars: dose 1-10 µM, time 72-96 hrs, TDE = time-dependent effect.
Assay [19] deals with Leishmania donovani. Nature of the assay: Antileishmanial activity against Leishmania donovani Ag83 promastigotes infected in BALB/c mouse assessed as reduction of amastigote burden in liver treated after 3 weeks of infection at 5 to 10 mg/kg, ip twice a week for 3 weeks by Giemsa staining stamp-smear based limiting dilution assay. Format: functional, organism-based. As to conditions: dose 5-10 mg/kg.

In assay [20] the test system is Leishmania donovani. Kind of assay: Antileishmanial activity against Leishmania donovani Ag83 promastigotes infected in BALB/c mouse assessed as reduction of amastigote burden by measuring parasite count in spleen treated after 3 weeks of infection at 5 to 10 mg/kg, ip twice a week for 3 weeks by qPCR based kineto-plastid DNA. Format: functional, organism-based. As to conditions: dose 5-10 mg/kg. (Quantitative PCR measures a nucleic acid by following its amplification.)

In assay [21] the test system is Leishmania donovani. Kind of assay: Antileishmanial activity against antimony resistant Leishmania donovani BHU575 promastigotes infected in BALB/c mouse assessed as reduction of amastigote burden by measuring parasite count in blood treated after 3 weeks of infection at 5 to 10 mg/kg, ip twice a week for 3 weeks by qPCR based kineto-plastid DNA. Format: functional, organism-based. As to conditions: dose 5-10 mg/kg.

For assay [22], the system named is Leishmania donovani. Kind of assay: Antileishmanial activity against Leishmania donovani Ag83 promastigotes infected in BALB/c mouse model of visceral leishmaniasis assessed as fold change in T-helper type 1 immunological evoke response in splenocytes by measuring increase in TNF alpha cytokine level treated after 3 weeks of infection at 5 to 10 mg/kg, ip twice a week for 3 weeks by RT-PCR analysis. Format: functional. Particulars: dose 5-10 mg/kg.

Assay [23] relates to Leishmania donovani. Kind of assay: Antileishmanial activity against Leishmania donovani Ag83 promastigotes infected in BALB/c mouse model of visceral leishmaniasis assessed as fold change in T-helper type 1 immunological evoke response in splenocytes by measuring increased IL-12 cytokine level treated after 3 weeks of infection at 5 to 10 mg/kg, ip twice a week for 3 weeks by RT-PCR analysis. Particulars: dose 5-10 mg/kg. The format is functional.

Calls of active or inactive are those of the source. The rule behind the calls is not given here.

Turning to `COc1cc(-c2nc3ccccc3c3nc4ccccn4c23)cc(OC)c1OC`, the Activity in the assay on Leishmania donovani [1] came to 31.5%; in the assay on Leishmania donovani [6] it was 14.5%; with Leishmania donovani [7] it was 34.2%; in the assay with Leishmania donovani [9] it was 23.9%; in the assay with Leishmania donovani [10], 1.4%; with Leishmania donovani [16], 27.5%. Further, the Activity entry in the assay with Leishmania donovani [18] is “Tde”. The IC50 on DNA topoisomerase I is 6.5 µM. Also, the inhibition in assay [2] stood at 85%. Also, the Ratio IC50 worked out at 2.5 in [3] and 90 in the assay on MCF7 [13]. Further, in [4], the inhibition entry was “inactive”. The result (in assay [5]; with Leishmania donovani [11]; in the assay with Leishmania donovani [14]; in the assay on Leishmania donovani [15]; with Leishmania donovani [19]; with Leishmania donovani [20]) was Active. Besides, the result with Leishmania donovani [21] was Active. For the same compound, the outcome with Leishmania donovani [8] and with MCF7 [12] was inactive. For the same compound, the EC50 in the assay with Leishmania donovani [17] is 2310 nM. For the same compound, the “fold change (FC)” value in the assay with Leishmania donovani [22] amounted to 5; in the assay on Leishmania donovani [23], 10.

By IC50 is commonly meant the concentration that inhibits the measured activity by half. One may read the inhibition as the drop in the measured response relative to a control, in per cent. What is called EC50 is the concentration needed to bring the measured effect to its halfway point.
